Tests used:
[1] = Dog toxicology studies (6 month and nine-month); type: in vivo
Source text: The body weight of dogs treated with different doses of saracatinib was plotted as a function of time. There were a […] (4 female and 4 male in each group), but a single sex (male) is shown here because the weight range is different between sexes. The trend for female dogs is similar but not shown. Values are mean±sem.

[2] = Dog exposure (Cmax and AUC) with oral dosing; type: in vivo
[3] = system: subjects with mild to moderate AD; test: Phase Ib multiple ascending dose study, safety and tolerability; type: in vivo; conditions: human, 50, 100 or 125 mg PO daily
Source text: Subjects were enrolled in three cohorts of 8 subjects each.

PS19 mice [4] = test: Morris water maze in P301S Tau (PS19) transgenic mice; type: in vivo, mouse; conditions: 8-month-old PS19 mice, 6 months of treatment, 5 mg/kg/d in diet
Source text: FIGS. 11A-11C illustrate that Fyn kinase inhibition prevents memory deficits in P301S Tau transgenic tice. FIG. 11A: Timeline of PS19 mouse treatment. FIG. 11B: Morris water maze probe trial for 8-month-old PS19 or WT mice after 6 months of AZD0530 or Vehicle treatment. Twenty four hours after the reverse learning trials in the Morris water maze, the submerged platform was removed and the fraction of 60 sec spent in the target quadrant where the hidden platform had been located previously was recorded. n=11-15/group, each dot is one mouse. Data are mean±SEM. Dashed line indicates random chance performance. […] Latency was measured as the time for the mouse to cross to the opaque box. n=16-18/group. […]
To generate chow containing chow for chronic dosing, the compound was incorporated into purified diet pellets by Research Diets, Inc. by dissolving the compound in a solution of 0.5% w/v Hydroxypropylmethylcellulose/0.1% w/v polysorbate 80 at 1.429 mg/ml. […] The dosage of the drug in the food was calculated to take into account the average amount of food eaten by a mouse in a single day per kg of weight and adjusted to be equivalent to ingesting 5 mg/kg per day.
The Morris water maze paradigm was performed as previously described (Kaufman et al., 2015, Ann Neurol 77:953-971). […] Latency was measured as the time that it took for the mouse to find and spend 1 second on the hidden platform. […]

PS19 mice [5] = test: Passive avoidance test in PS19 mice; type: in vivo, mouse; conditions: 8-month-old PS19 mice, 6 months of treatment
Source text: FIGS. 11A-11C illustrate that Fyn kinase inhibition prevents memory deficits in P301S Tau transgenic tice. FIG. 11A: Timeline of PS19 mouse treatment. FIG. 11B: Morris water maze probe trial for 8-month-old PS19 or WT mice after 6 months of AZD0530 or Vehicle treatment. Twenty four hours after the reverse learning trials in the Morris water maze, the submerged platform was removed and the fraction of 60 sec spent in the target quadrant where the hidden platform had been located previously was recorded. n=11-15/group, each dot is one mouse. Data are mean±SEM. Dashed line indicates random chance performance. Two-way ANOVA reveal an interaction between genotype and treatment (p=0.014). *p<0.05; Sidak's post-hoc multiple comparisons test. FIG. 11C: Passive avoidance test for 8-month-old PS19 and WT mice after 6 months of treatment with AZD0530 or Vehicle. Latency was measured as the time for the mouse to cross to the opaque box. n=16-18/group. Wilcoxon match-pairs signed test; (WT, Vehicle: p=0.0007; WT, AZD0530: p<0.0001; […]; PS19, AZD0530: p=0.0126.)
A Passive Avoidance Controller CAT 7551 was used to conduct the passive avoidance test as previously described (Gimbel et al., 2010, J Neurosci 30:6367-6374) with slight modifications. The door delay was set to 90 seconds, and the shock intensity was set to 0.5 mA with a shock duration of 2 seconds. […]

solid tumors = conditions: single agent, specific oncological indications; cited from earlier work

SMILES: CN1CCN(CCOc2cc(OC3CCOCC3)c3c(Nc4c(Cl)ccc5c4OCO5)ncnc3c2)CC1 [saracatinib, N-(5-chloro-benzo[d][1,3]dioxol-4-yl)-7-(2-(4-methylpiperazin-1-yl)ethoxy)-5-(tetrahydro-2H-pyran-4-yloxy)quinazolin-4-amine]
- body weight ([1]; nine-month study): continued weight gain
- adverse symptoms ([1]; nine-month study, 0.5, 2 and 5 mg/kg/d, at 8.75 months): no obvious adverse symptoms
- human daily dose equivalent ([2]; dog 2 mg/kg/d): 50 mg
- human dose of equivalent exposure (Cmax and AUC) ([2]; dog 5 mg/kg, saracatinib free base in human): 125 mg
- dose dependence of exposure ([2]; dog, multiple dosing, 0.5 to 5 mg/kg oral daily dose): linear
- hematological changes [3]: no significant hematological changes
- serious adverse events, laboratory abnormalities, early terminations [3]: no apparent study-related serious adverse events (SAEs), significant laboratory abnormalities, or early terminations
- probe trial after reverse learning, time in target quadrant (PS19 mice [4]): significantly improved the memory deficit
- passive avoidance at 24 hours (PS19 mice [5]): exhibited passive avoidance
- benefit in Phase II studies (solid tumors): limited benefit

— patent US11241434B2, “Compositions and methods for improving cognition in a subject” (Yale University, priority 2013, dated 2022)
